From patent US20110124574A1, “RESTORATION OF ESTROGEN RECEPTOR-(ALPHA) ACTIVITY” (priority 2008, published 2011) come the findings set out here.

For one assay, the system named is Caspase 3. Kind of assay: Caspase 3 activity assay (fluorometric, DEVD-amc). It is filed as cell-based, human. To be noted: MDA-MB-231, stimulation plus tamoxifen 1 μM 20 hours; compared to untreated cells or tamoxifen alone. The protocol: (§1) MDA-MB-231 cells were grown in 6 well plates and stimulated with recombinant Wnt-5a protein (rW5a) or the Wnt-5a derived Foxy-5 peptide (F5), for 24 or 48 h. Cells were treated with tamoxifen for the final 20 h and their apoptotic responses were measured via different methods. […] Arrows highlight apoptotic cells. Bars represent […]. B: Following treatment with rW5a, F5 and tamoxifen, or tamoxifen alone, cells were lysed and subjected to SDS-PAGE, transferred to nitrocellulose membranes and blotted for cleaved caspase 3. C: Treated cells were assessed for their relative caspase 3 activity using fluorometric spectrophotometry. The graph represents 6 separate experiments. * P<0.01, ** P<0.001. D: MTT assays were also performed on MDA-MB-231 cells treated with rWnt-5a, F5 and tamoxifen, or tamoxifen alone (MDA-MB-231 and MCF-7 cells) to assess cell growth inhibition. The graph represents the average of 6 separate experiments, with standard deviation represented by error bars. ** P<0.01, *** P<0.001.
Caspase 3 activity was determined via fluorescent spectrometry. The fluorogenic peptide DEVD-amc (Upstate Biotech) was used as a substrate. […] Reactions were incubated at 37° C. for 1 h and analysed on a FLUOstar plate reader (BMG Lab technologies). The total protein content of each lysates was measured using the Coomassie Plus Protein Assay and read outs averaged and adjusted accordingly. […]

A further assay deals with MDA-MB-231 cells. Description: Nuclear (Hoechst) staining for apoptotic cells after tamoxifen. Particulars: MDA-MB-231, stimulation 24 and 48 hours, tamoxifen 5 μM for the last 20 hours. It is filed as cell-based, human. The protocol: as §1
MDA-MB-231 cells were plated on cover slips and allowed to adhere. Wnt-5a (0.6 μg/ml) or Foxy-5 (100 μM) were added for 24 or 48 hours. Cells were then treated with tamoxifen (5 μM) for the last 20 hours. MCF-7 cells were used as a positive control. […] The morphology was analyzed with Nikon E800 Eclipse Microscope with 60× objective.

The test system of assay [1] is ERα. Kind of assay: ERα protein expression by Western blot in stimulated MDA-MB-468 cells. It is filed as cell-based, human. Particulars: stimulation for 24 and 48 hours. As for the experimental part:
(§2) Breast cancer cells were grown in 6 well plates, and stimulated with recombinant Wnt-5a protein (rW5a), the Wnt-5a derived Foxy-5 peptide (F5), recombinant Wnt-3a protein (rW3a), or a formylated random hexapeptide (Rdm) for 24 or 48 h. Following treatment cells were lysed and subjected to SDS-PAGE, transferred to nitrocellulose membranes and blotted for ERα expression. A: MDA-MB-231 cells stimulated with recombinant Wnt-5a, Foxy-5, Wnt-3a, Rdm. B: MDA-MB-468 cells stimulated with recombinant Wnt-5a or Foxy-5. C: 4T1 cells stimulated with recombinant Wnt-5a or Foxy-5. Positive controls (Pos) were included in order to confirm the correct band size for ERα. Two different positive controls were used: T47D cell lysates known to express ERα and MDA-MB-231 cells transiently transfected with a full length ERα plasmid, resulting in extremely high ERα expression (top row, right panel, third row, right panel). […]
(§3) Cells were lysed in Triton lysis buffer (50 mM Tris (pH7.5), 1% Triton x-100, 140 mM NaCl, 0.5 mM EDTA, 0.5 MgCl2, 10 mM NaF) with the addition of fresh leupeptin (1 μg/ml), Pefabloc (2 mM), aprotinin (20 μg/ml) and Na3VO4 (4 mM). […] Scanning and densitometry was performed using a Bio-Rad (Hercules Calif.) GS-800 densitometer with Quantity One software. […]
In general terms: In western blotting, separated proteins are transferred to a membrane and probed.

The test system of assay [2] is ERα. Description: ERα protein expression by Western blot in stimulated 4T1 cells. It is filed as cell-based, mouse. Particulars: stimulation for 24 and 48 hours. As for the experimental part: as §2, §3

Where no end group is shown, it is not given here. The star is where a group is joined. For = O=C*

For the molecule “formyl-MDGCEL (For-MDGCEL; listed as Homo sapiens) [Foxy-5]”, the “increase of degree of apoptosis (caspase-3 activity)” value in the assay on Caspase 3 is reported as “three”. Besides, in the assay with MDA-MB-231 cells, the “apoptotic cells by Hoechst staining in response to tamoxifen” value is “apoptotic cells displaying altered nuclear morphology”. The ERα levels result with ERα [1] and with ERα [2] was “upregulated” each time.

B1: recombinant Wnt-5a: recombinant Wnt-5a protein (R&D Systems) (protein, UniProt P41221 62-380, looked up)
Protein Wnt-5a: IIGAQPLCSQLAGLSQGQKKLCHLYQDHMQYIGEGAKTGIKECQYQFRHRRWNCSTVDNTSVFGRVMQIGSRETAFTYAVSAAGVVNAMSRACREGELSTCGCSRAARPKDLPRDWLWGGCGDNIDYGYRFAKEFVDARERERIHAKGSYESARILMNLHNNEAGRRTVYNLADVACKCHGVSGSCSLKTCWLQLADFRKVGDALKEKYDSAAAMRLNSRGKLVQVNSRFNSPTTQDLVYIDPSPDYCVRNESTGSLGTQGRLCNKTSEGMDGCELMCCGRGYDQFKTVQTERCHCKFHWCCYVKCKKCTEIVDQFVCK
In the case of B1, the “increase of degree of apoptosis (caspase-3 activity)” value in the assay with Caspase 3 is “two”. Further, the “apoptotic cells by Hoechst staining in response to tamoxifen” value in the assay on MDA-MB-231 cells is on record as “apoptotic cells displaying altered nuclear morphology”. The ERα levels result in the assay on ERα [1] and in the assay with ERα [2] was “upregulated” each time.
